Source: publication PMC3855752, “Function and Distribution of 5-HT2 Receptors in the Honeybee (Apis mellifera)” (PLoS ONE, 2013)
Where two headings read alike, the source gives them in different places.

What was measured:
Assay type in all cases: cell-based
Am5-HT2α [1] = molecular target: T1, Am5-HT2α (Apis mellifera, UniProt A0A8U1C256); assay: Fluo-4 intracellular Ca2+ assay in stable HEK […] cells, inhibition of serotonin response; conditions: read-out: Am5-HT2αIC50
T1 construct: gene 5-HT2alpha; cDNA from drone brain
T1 sequence (A0A8U1C256 entry or part of it): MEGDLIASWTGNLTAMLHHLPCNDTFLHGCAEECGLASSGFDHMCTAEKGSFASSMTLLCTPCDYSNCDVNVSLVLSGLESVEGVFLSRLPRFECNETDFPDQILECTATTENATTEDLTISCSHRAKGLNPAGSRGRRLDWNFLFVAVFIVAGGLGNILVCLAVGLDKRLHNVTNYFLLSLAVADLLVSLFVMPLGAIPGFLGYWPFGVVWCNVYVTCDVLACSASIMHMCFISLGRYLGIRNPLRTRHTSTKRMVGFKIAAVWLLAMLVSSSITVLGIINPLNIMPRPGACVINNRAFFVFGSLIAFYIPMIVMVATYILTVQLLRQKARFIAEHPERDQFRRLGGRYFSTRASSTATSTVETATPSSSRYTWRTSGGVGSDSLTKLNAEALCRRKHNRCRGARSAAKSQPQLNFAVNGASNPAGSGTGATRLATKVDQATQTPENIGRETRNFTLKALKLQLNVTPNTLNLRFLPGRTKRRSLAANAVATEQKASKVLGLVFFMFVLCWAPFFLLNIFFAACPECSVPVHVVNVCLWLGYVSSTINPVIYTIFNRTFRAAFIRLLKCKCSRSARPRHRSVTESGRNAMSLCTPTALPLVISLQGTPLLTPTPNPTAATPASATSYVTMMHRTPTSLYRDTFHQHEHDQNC

Am5-HT2α [2] = molecular target: T1, Am5-HT2α; assay: Fluo-4 intracellular Ca2+ assay in stable HEK […] cells
Am5-HT2β [3] = molecular target: T2, Am5-HT2β (Apis mellifera, UniProt A0ACM8QMF9); assay: as above
T2 construct: gene 5-HT2beta; cDNA from drone brain
T2 sequence (A0ACM8QMF9 entry or part of it): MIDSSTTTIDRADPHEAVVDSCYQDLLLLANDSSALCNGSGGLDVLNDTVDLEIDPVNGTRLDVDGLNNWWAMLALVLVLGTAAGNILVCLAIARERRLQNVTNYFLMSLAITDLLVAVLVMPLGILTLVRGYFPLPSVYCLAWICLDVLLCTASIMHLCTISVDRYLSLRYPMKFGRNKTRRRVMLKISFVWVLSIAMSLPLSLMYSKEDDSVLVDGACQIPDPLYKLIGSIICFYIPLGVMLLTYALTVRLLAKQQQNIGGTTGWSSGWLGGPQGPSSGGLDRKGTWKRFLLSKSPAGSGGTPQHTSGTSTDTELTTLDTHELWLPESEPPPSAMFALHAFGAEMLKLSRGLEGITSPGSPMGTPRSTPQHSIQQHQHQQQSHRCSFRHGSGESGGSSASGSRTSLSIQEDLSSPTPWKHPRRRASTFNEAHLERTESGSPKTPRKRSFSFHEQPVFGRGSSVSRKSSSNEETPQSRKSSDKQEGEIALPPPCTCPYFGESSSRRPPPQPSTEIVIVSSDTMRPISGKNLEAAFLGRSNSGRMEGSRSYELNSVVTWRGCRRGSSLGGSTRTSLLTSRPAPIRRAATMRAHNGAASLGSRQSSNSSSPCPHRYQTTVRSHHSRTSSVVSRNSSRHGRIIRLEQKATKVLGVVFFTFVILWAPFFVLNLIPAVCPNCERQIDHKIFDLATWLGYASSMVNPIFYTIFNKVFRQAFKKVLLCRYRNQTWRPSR

Am5-HT2β [4] = molecular target: T2, Am5-HT2β; assay: Fluo-4 intracellular Ca2+ assay in stable HEK […] cells, inhibition of serotonin response; conditions: read-out: Am5-HT2βIC50

## Cn1ccc2cc(NC(=O)Nc3cccnc3)ccc21 [SB-200646]
Am5-HT2α [1]
  IC50: 100 nM

## NCCc1c[nH]c2ccc(O)cc12 [serotonin]
Am5-HT2α [2]; read-out: EC50
  EC50: 25.7 nM
Am5-HT2β [3]; read-out: EC50
  EC50: 32.5 nM

## O=C(c1ccc(F)cc1)C1CCN(CCn2c(=O)[nH]c3ccccc3c2=O)CC1 [ketanserin]
Am5-HT2β [4]
  IC50: 1500 nM

## COc1ccc2[nH]cc(CCN)c2c1 [5-methoxytryptamine]
Am5-HT2α [2]
  EC50: 70 nM
Am5-HT2β [3]
  EC50: 60.4 nM

## CC[C@@H](CO)NC(=O)[C@@H]1C=C2c3cccc4c3c(cn4C)C[C@H]2N(C)C1 [methysergide]
Am5-HT2α [1]
  IC50: 2200 nM

## CSc1ccc2c(c1)C(N1CCN(C)CC1)Cc1ccccc1S2 (stereo not shown) [methiothepin]
Am5-HT2α [1]
  IC50: 600 nM

## CCCN(CCC)C1CCc2cccc(O)c2C1 (stereo not shown) [8-OH-DPAT, 8-hydroxy-2-(di-n-propylamino)tetralin]
Am5-HT2α [2]; read-out: EC50
  EC50: 55900 nM
Am5-HT2β [3]; read-out: EC50
  EC50: 562 nM
